One assay has as its target T1, κOR (Homo sapiens, UniProt P41145).
T1 construct: expressed in transfected cells; host or cells: HEK 293T cells, transient transfection, membrane preparation
As to the kind of experiment: competitive radioligand binding with [3H]diprenorphine, membranes of transfected HEK 293T cells. Here is the method:
(§1) To verify the subtype selectivity of the described compounds for µOR over δOP and κOR, respectively, the binding affinities of the described examples to the different human opioid receptors in an in-vitro test system were measured.
After preparation of membranes, radioligand displacement assays were run in 96-well format at a final volume of 200 µL in binding buffer (50 mM Tris-HCI, 1 mM EDTA, 5 mM MgCl2, 100 µg/mL bacitracin, 5 µg/mL soybean trypsin inhibitor, pH 7.4) with the radioligand [^3H]diprenorphine (specific activity = 31 Ci/mmol) at a final concentration of 0.20-0.30 nM. […] Unspecific binding was determined in the presence of 10 µM of the naloxone. […] The resulting competition curves of the receptor binding experiments were analyzed by nonlinear regression. […] Three to seven experiments per compound were performed, with each concentration in triplicate.

Assay [1] addresses T2, µOR (Homo sapiens, UniProt P35372). As to the kind of experiment: β-arrestin-2 recruitment, enzyme-fragment complementation assay in HEK-293 cells. The assay is classed as cell-based. To be noted: for Emax: HEK293, relative to the full effect of reference agonist DAMGO [=100%]; for β-arrestin recruitment EC50: mean of 3-8 tests, 90 min incubation, CBA = could not be analyzed (no dose-response curve). More on the design: expressed in transfected cells; host or cells: HEK-293 cells stably expressing EA-tagged β-arrestin-2, transiently transfected with µOR-PK1. Here is the method: (§2) Functionally selective drugs, which are biased towards Gi protein activation over β-arrestin signaling at the µOR are indicated to show an improved side effect profile. Thus, the characterization of the functional properties of the described examples at the µOR were performed by determination of the ligand stimulated G-protein related signaling and β-arrestin recruitment applying cell based in-vitro test systems. Full and partial agonists as well as antagonists for G protein related signaling were identified.
Measurement of β-arrestin-2 recruitment was done applying an enzyme-fragment complementation assay as described previously (C. Gentzsch, K. Seier, A. Drakopoulos, M.-L. Jobin, Y. Lanoiselee, Z. Koszegi, D. Maurel, R. Sounier, H. Huebner, P. Gmeiner, S. Granier, D. Calebiro, M. Decker. Ang. Chem. Int. Ed. 2020, 59, 2-9. J. Hellmann, M. Drabek, J. Yin, J. Gunera, T. Proell, F. Kraus, C.J. Langmead, H. Huebner, D. Weikert, P. Kolb, D.M. Rosenbaum, P. Gmeiner. PNAS 2020, 117, 18059-18067). In brief, HEK-293 cells stably expressing the enzyme acceptor (EA) tagged β-arrestin-2 fusion protein were transiently co-transfected with the ProLink tagged µOR-PK1 After 24 h cells were transferred into 384-well microplates and cultured for further 24 h. To start arrestin recruitment compounds were added to the cells to get a final concentration in a range of 10 pM to 100 µM. After incubation for 90 min reaction was stopped by addition of detection mix. Chemiluminescence was determined in duplicates (3-8 individual experiments for each compound in comparison to the reference agonist DAMGO). Data analysis was done as described above.
(§3) In the above table, the numbers indicate mean EC50 values in nM and Emax values relative to the full effect of reference agonist DAMGO [=100%], respectively and are derived from 3-9 individual experiments for G-protein signaling and 3-8 tests for arrestin recruitment. ND = not determined.

For assay [2], the target named is T2, µOR. As to the kind of experiment: competitive radioligand binding with [3H]diprenorphine, membranes of transfected HEK 293T cells. The arrangement: expressed in transfected cells; host or cells: HEK 293T cells, transient transfection, membrane preparation. Here is the method: as §1
(§4) For the determination of receptor binding affinity competitive radioligand binding experiments were performed as described in literature (H. Huebner, C. Haubmann, W. Utz, P. Gmeiner, J. Med. Chem., 2000, 43, 756-762). In brief, HEK 293T cells were transiently transfected with the cDNAs coding for the human opioid receptor subtypes µOR, δOR, and kOR, respectively, using a solution of polyethylenimine in PBS (PEI, linear, 25 kDa, Polysciences) as transfection reagent at a 3:1 PEI to cDNA ratio (I. Fish, A. Stoessel, K. Eitel, C. Valant, S. Albold, H. Huebner, D. Moeller, M.J. Clark, R.K. Sunahara, A. Christopoulos, B.K. Shoichet, P. Gmeiner, J. Med. Chem., 2017, 60, 9239-9250). After preparation of membranes, radioligand displacement assays were run in 96-well format at a final volume of 200 µL in binding buffer (50 mM Tris-HCI, 1 mM EDTA, 5 mM MgCl2, 100 µg/mL bacitracin, 5 µg/mL soybean trypsin inhibitor, pH 7.4) with the radioligand [^3H]diprenorphine (specific activity = 31 Ci/mmol) at a final concentration of 0.20-0.30 nM. […] Unspecific binding was determined in the presence of 10 µM of the naloxone. Protein concentrations were determined employing the method of Lowry with bovine serum albumin as standard (O.H. Lowry, N.J. Rosebrough, A.L. Farr, R.J. Randall, J. Biol. Chem., 1951, 193, 265-275). The resulting competition curves of the receptor binding experiments were analyzed by nonlinear regression. The data were initially fit using a sigmoid model to provide IC50 values, which were subsequently transformed to Ki values according to the equation of Cheng and Prusoff (Y.-C. Cheng, W. H. Prusoff, Biochem. Pharmacol., 1973, 22, 3099-3108). Three to seven experiments per compound were performed, with each concentration in triplicate.

In another assay the target is T3, δOR (Homo sapiens, UniProt P41143).
T3 construct: expressed in transfected cells; host or cells: HEK 293T cells, transient transfection, membrane preparation
Described as above. How it is done: as §1, §4

Assay [3] deals with T2, µOR. Put plainly: G-protein mediated signaling, IP1 accumulation assay (HTRF) in HEK-293T cells with hybrid G-protein Gαqi. More on the design: expressed in transfected cells; host or cells: HEK-293T cells, transient transfection. The format is cell-based. To be noted: for Emax: HEK-293T, read-out: G-protein signaling Emax; for G-protein signaling EC50: mean of 3-9 experiments, 180 min at 37 °C, CBA = could not be analyzed (no dose-response curve). Here is the method: as §2
The determination of G-protein stimulated µOR activation was measured applying an IP1 accumulation assay as described previously (J. Kruell, S.K. Fehler, L. Hofmann, N. Nebel, S. Maschauer, O. Prante, P. Gmeiner, H. Lanig, H. Huebner, M.R. Heinrich. ChemMedChem 2020, 15, 1175-1186. C. Gentzsch, K. Seier, A. Drakopoulos, M.-L. Jobin, Y. Lanoiselee, Z. Koszegi, D. Maurel, R. Sounier, H. Huebner, P. Gmeiner, S. Granier, D. Calebiro, M. Decker. Ang. Chem. Int. Ed. 2020, 59, 2-9). In brief, HEK-293T cells were grown to confluence of approximately 70% and transiently transfected with the cDNA of the human µOR receptor and the hybrid G-protein Gαqi. After one day cells were seeded into 384-well microplates. For testing cells were incubated with test compounds (final range of concentration from 1 pM up to 10 µM) for 180 min at 37 °C followed by addition of detection reagents. Time resolved fluorescence resonance energy transfer (HTRF) was determined using a microplate reader. Each compound was tested in duplicates in 3-9 individual experiments in comparison to the reference compound DAMGO. The resulting dose response curves were analyzed by nonlinear regression using the algorithms in PRISM 6.0 (GraphPad software, San Diego, CA), fitted with a sigmoid model and normalized to basal activity (0 %) and the maximal effect caused by the reference full agonist DAMGO (100 %).
as §3

[4] abbreviates: radioligand [3H]diprenorphine, number in brackets = number of experiments, read-out: mean Ki value κOR.
The mark [5] stands for this setting: radioligand [3H]diprenorphine, number in brackets = number of experiments, read-out: mean Ki value δOR.

Read-outs that look alike come from different tables or passages of the source. Some results are limits rather than exact numbers.

Turning to `Cc1cc(O)cc(C)c1C[C@H](N)CNC(=O)/C=C/c1ccccc1` [Example 10, (S)-N-(2-Amino-3-(4-hydroxy-2,6-dimethylphenyl)propyl)cinnamamide formiate], the Ki – broadly, a dissociation constant, usually derived from enzyme kinetics or from competition with a known ligand – was 440 nM at κOR, 58 nM at µOR [2] and 510 nM on δOR. Also, the Emax on µOR [1] and at µOR [3] was below 5% each time. Moreover, the “β-arrestin recruitment EC50” value on µOR [1] was “CBA”. For the same compound, at µOR [3], the “G-protein signaling EC50” value is “CBA”.
Take `CN(C)[C@H](CNC(=O)/N=N/c1ccccc1)Cc1ccc(O)cc1` [Comparative Example 3, (S,E)-N-(2-(Dimethylamino)-3-(4-hydroxyphenyl)propyl)-2-phenyldiazene-1-carboxamide formiate, reference compound]: the Ki at κOR was determined as 540 nM; on µOR [2] it was 66 nM; at δOR, 630 nM.
`CN(C)[C@H](CNC(=O)C#Cc1ccccc1)Cc1ccc(O)cc1` [Example 2, (S)-N-(2-(Dimethylamino)-3-(4-hydroxyphenyl)propyl)-3-phenylpropiolamide]: the values for the Ki on κOR (setting [4]), at µOR [2] and at δOR (setting [5]) were 230 nM, 18 nM and 140 nM, respectively. The Emax – broadly, the size of the effect at its maximum, as opposed to the concentration needed – was below 5% at µOR [1] and 42% at µOR [3]. For the same compound, at µOR [1], the “β-arrestin recruitment EC50” value is “CBA”. Besides, the EC50 – broadly, the concentration giving half of the maximal effect – at µOR [3] worked out at 22 nM.
As to `CN(C)[C@H](CNC(=O)/C=C/c1ccc(F)c(C(F)(F)F)c1)Cc1ccc(O)cc1` [Example 16, (S,E)-N-(2-(Dimethylamino)-3-(4-hydroxyphenyl)propyl)-3-(4-fluoro-3-(trifluoromethyl)phenyl)acrylamide formiate], the Ki turned out to be 600 nM at κOR, 23 nM on µOR [2] and 250 nM at δOR. On µOR [3], this compound registered an EC50 of 40 nM. For the same compound, the maximal response (Emax) at µOR [3] came out at 102%.
In the case of `CN(C)[C@H](COC(=O)NCCc1ccsc1)Cc1ccc(O)cc1` [Comparative Example 1, (S)-2-(Dimethylamino)-3-(4-hydroxyphenyl)propyl (2-(thiophen-3-yl)ethyl)carbamate formiate, reference compound], the Ki at κOR came out at 3300 nM; at µOR [2], 2400 nM; at δOR it was 3000 nM.
For the compound `CN[C@H](CNC(=O)/C=C/c1cccc(C(F)(F)F)c1)Cc1c(C)cc(O)cc1C` [Example 12, (S,E)-N-(3-(4-Hydroxy-2,6-dimethylphenyl)-2-(methylamino)propyl)-3-(3-(trifluoromethyl)phenyl)acrylamide formiate], the Ki at κOR worked out at 310 nM; at µOR [2] it was 12 nM; on δOR, 310 nM. The maximal response (Emax) on µOR [3] is below 5%. Besides, the “G-protein signaling EC50” value on µOR [3] is “CBA”.
As for `Cc1cccc(/C=C/C(=O)NC[C@H](Cc2ccc(O)cc2)N(C)C)c1` [Example 13, (S,E)-N-(2-(Dimethylamino)-3-(4-hydroxyphenyl)propyl)-3-(m-tolyl)acrylamide], the Ki was found to be 500 nM on κOR (setting [4]), 26 nM on µOR [2] and 300 nM at δOR (setting [5]). A half-maximal response at µOR [3] (EC50) required 41 nM. The Emax on µOR [3] worked out at 78%.
`CN(C)[C@](C)(CNC(=O)C=Cc1ccccc1)Cc1ccc(O)cc1` (stereo in doubt) [Example 5, (S)-N-(2-(Dimethylamino)-3-(4-hydroxyphenyl)-2-methylpropyl)cinnamamide]: the Ki at κOR worked out at 970 nM; at µOR [2] it was 310 nM; on δOR it was 1300 nM.
The compound `CN(C)[C@H](CNC(=O)/C=C/c1cccc2ccccc12)Cc1ccc(O)cc1` [Example 6, (S,E)-N-(2-(Dimethylamino)-3-(4-hydroxyphenyl)propyl)-3-(naphthalen-1-yl)acrylamide] came in with a Ki on κOR of 180 nM. On µOR [1], the Emax is below 5% and the “β-arrestin recruitment EC50” value was “CBA”. Also, it took 20 nM to reach a half-maximal effect on µOR [3] (EC50).
Consider `CN(C)[C@H](COC(=O)C=Cc1ccccc1)Cc1ccc(O)cc1` (stereo in doubt) [Comparative Example 2, (S)-2-(Dimethylamino)-3-(4-hydroxyphenyl)propyl cinnamate, reference compound], for which the Ki on κOR was determined as 320 nM; on µOR [2] it was 230 nM; on δOR, 860 nM.
Consider `Cc1cc(O)cc(C)c1C[C@H](N)CNC(=O)/C=C/c1cccc(C(F)(F)F)c1` [Example 11, (S,E)-N-(2-Amino-3-(4-hydroxy-2,6-dimethylphenyl)propyl)-3-(3-(trifluoromethyl)phenyl)acrylamide formiate], for which the results for the Ki at κOR, at µOR [2] and at δOR were 220 nM, 19 nM and 360 nM, respectively. The Emax on µOR [3] was below 5%. The “G-protein signaling EC50” value on µOR [3] is reported as “CBA”.

Values taken from patent EP3964497A1, “SUBSTITUTED VICINAL DIAMINE COMPOUNDS AND THEIR USE IN THE TREATMENT, AMELIORATION OR PREVENTION OF PAIN” (priority 2020, dated 2022).
